From US20130197043A1, “USE OF THE FETAL REPROGRAMMING OF A PPAR AGONIST” (SNU R&DB FOUNDATION, priority 2010, published 2013)

Tests used:
hPPARg = molecular target: T1, hPPARg (Homo sapiens, UniProt P37231); assay: Transfection assay in CV-1 cells, hPPARg; format: cell-based; conditions: luciferase reporter
T1 construct: expressed in transfected cells; host or cells: CV-1 cells
T1 sequence (P37231 1-505): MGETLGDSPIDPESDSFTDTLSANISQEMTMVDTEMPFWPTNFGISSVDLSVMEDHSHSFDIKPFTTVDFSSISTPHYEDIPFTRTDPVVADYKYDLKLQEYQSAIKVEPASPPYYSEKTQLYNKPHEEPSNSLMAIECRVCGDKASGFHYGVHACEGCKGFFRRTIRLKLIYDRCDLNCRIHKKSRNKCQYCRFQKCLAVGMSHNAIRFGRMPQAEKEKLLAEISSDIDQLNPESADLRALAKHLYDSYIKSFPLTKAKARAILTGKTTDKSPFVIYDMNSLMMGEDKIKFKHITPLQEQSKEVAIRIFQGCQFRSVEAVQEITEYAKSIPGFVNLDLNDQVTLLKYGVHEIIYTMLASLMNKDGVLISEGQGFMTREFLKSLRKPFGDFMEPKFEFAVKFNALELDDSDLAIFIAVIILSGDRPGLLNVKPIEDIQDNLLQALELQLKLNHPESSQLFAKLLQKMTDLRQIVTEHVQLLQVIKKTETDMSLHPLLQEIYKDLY
Protocol: This assay was conducted by using CV-1 cells. The cells were cultured on a 96-well plate with a DMEM medium containing 10% FBS, DBS (delipidated), and 1% penicillin/streptomycin in 37° C. of an incubator 5% of carbon dioxide. Test was conducted in four stages of cell inoculation, transfection, treatment with the developed material, and result confirmation. The CV-1 cells were inoculated on the 96-well plate at a cell density at 5,000 cells/well, and after 24 hours, transfection was performed. PPARs plasmid DNA, reporter DNA, and β-galactosidase DNA were mixed with a transfection reagent, and then used to treat the cells. The developed material was dissolved in dimethylsulfoxide (DMSO), and then was used to treat the cells by using media at various concentrations. After 24 hours of culturing in an incubator, the cells were lysed with a lysis buffer and luciferase activity and β-galactosidase activity were measured using a luminometer and a microplate reader. The measured luciferase value was calibrated with the β-galactosidase value, and this value was depicted on a graph and EC50 was determined.

ApoE−/− mice = assay: Arteriosclerosis prevention and treatment, en face analysis of arteries; format: in vivo; conditions: 14 weeks feedstuff, dosed over the last 4 weeks
Protocol: The in vivo test using ApoE−/− mice was conducted in order to verify the arteriosclerosis prevention and treatment effect of Compounds 5 and 9, the developed materials of the present invention. ApoE−/− mice, as an arteriosclerosis disease model, were fed with […] feedstuff (21% high fat and 1.25% high cholesterol feedstuff) over 14 weeks, to thereby induce arteriosclerosis, and then Compounds 5 and 9 were administered to the mice over the last 4 weeks. The medicine treatment manner was adopted. Arteries of the mice were resected, and then analyzed by the en face method. As the result, it was confirmed that Compounds 5 and 9 had 23% and 18% decreases in occurrence of arteriosclerosis, respectively.

[1] = system: C57BL/6 mice with obesity induced by 35% fat feedstuff; assay: Obesity suppression effect in high-fat diet mice; format: in vivo; conditions: 10 mg/kg/day oral, 60-day high-fat diet (35% fat)
Protocol: Test using mice was conducted in order to confirm the in vivo effect of the material according to the present invention. 8-week old C57BL/6 mice were used, and feedstuff containing 35% fat was used to induce obesity. A. vehicle and Compounds 5 and […] were orally administered. over 60-day period of high-fat diet.

[2] = system: mice subjected to fetal reprogramming; assay: Morris water maze test of fetal-reprogrammed mice; format: in vivo; conditions: for Morris water maze test time: mother 10 mg/kg/day oral during the fetal reprogramming period; for Morris water maze test: average time required to find the platform: 8-week old, maternal 10 mg/kg/day gestation and lactation
Protocol: An animal experiment was conducted in order to verify a memory improvement effect of the mice subjected to fetal reprogramming by PPAR δ agonist. Pregnant mice were orally administered with PPAR δ agonist, CMDD1111, at a concentration of 10 mg/kg/day during the gestation and lactation periods in order to verify effects of the invented material at the brain formation stage. When the fetus became an 8-week old adult, the Morris water maze test was conducted to compare memory between the control group and the administration group. This test can check special learning and memory, and is a task that is mainly dependent on the hippocampus in the brain. As the experiment result, the average times required to find the flatform were 26 seconds and 22 seconds (male and female, respectively) for the control group and were 9 seconds and […] (male and female, respectively) for the administration group. Therefore, it was verified that the PPAR δ agonist improved memory during the fetal programming period, and this effect was maintained until the adulthood.
The animal test was conducted in order to verify the memory improvement effect of the material according to the present invention. Compounds 5 and 9, which are the developed materials, were orally administered to the mother at a concentration of 10 mg/kg/day during the fetal reprogramming period. The Morris water maze test was used to confirm the difference in brain function between the control group and the administered group.

[3] = system: mice subjected to fetal reprogramming; assay: Treadmill endurance test of mice subjected to fetal reprogramming; format: in vivo; conditions: for Increase Rate (Administration Group/Control Group), Distance / Increase Rate (Administration Group/Control Group), Time: 10 mg/kg/day; for muscle colour after skin removal versus control: fetal reprogramming, 10 mg/kg/day oral; for running distance / running distance increase versus control / running time / running time increase versus control: maternal 10 mg/kg, gestation and lactation
Protocol: Before the experiment, mice were exercised for 5 minutes at a speed of 7 meters/min for two days so as to be adapted to exercising equipment. On day 3, the main experiment was conducted. As for the method for experiment, the mice were made to run at a speed of 10 meter/min for 60 minutes, and after that, the speed was increased at 1 meter/min once every 15 minutes until the maximum speed reaches 15 meters/min. As for the male mice, the running time was increased by 2.9 fold ([…], P<0.0001, n=6) and the running distance was increased by 3.0 fold (9927±1168 versus 3303±394 m, P<0.0001) in the PPAR δ agonist (CMDD1111)-administered mouse group than the control mouse group.
The Experiment using pregnant C57BL/6 mice was conducted in order to verify an endurance enhancement effect by fetal reprogramming of CMDD1226. […]
The experiment for verifying the fetal reprogramming effect of GW501516 and determining the optimum administration period thereof was conducted. The experiment method was shown in FIG. 1, and the experiment was conducted with respect to three kinds of administration periods (gestation period, lactation period, and both of gestation and lactation periods). As the experiment result, the group administered with PPAR δ agonist only during the gestation period had 2.6-fold and 3.2-fold increases in the running time and the running distance, respectively, and the group administered with PPAR δ agonist only during the lactation period had 2.4-fold and 3.0-fold increases in the running time and the running distance, respectively, as compared with the control group. The group administered with PPAR δ agonist during both the gestation and lactation periods had the most obvious increase in endurance, and had 5.1-fold and 6.6-fold increases as compared with the control group (FIG. 22).
The animal test was conducted in order to verify the muscle endurance enhancement and muscular function improvement effects of the material according to the present invention. […] […] The test using a treadmill was conducted in order to confirm the effect of this muscular fiber change on muscle endurance enhancement and muscular function improvement.

EC50 hPPARg (hPPARg)	Compound	decrease in occurrence of arteriosclerosis (ApoE−/− mice)	obesity suppression effect versus vehicle control [1]	Morris water maze test time [2]	Increase Rate (Administration Group/Control Group), Distance ([3]; Gestation + Lactation Periods)	Increase Rate (Administration Group/Control Group), Time ([3]; Gestation + Lactation Periods)	Increase Rate (Administration Group/Control Group), Distance ([3]; Gestation Period)	Increase Rate (Administration Group/Control Group), Time ([3]; Gestation Period)	Increase Rate (Administration Group/Control Group), Distance ([3]; Lactation Period)	Increase Rate (Administration Group/Control Group), Time ([3]; Lactation Period)	muscle colour after skin removal versus control [3]	other results
ia	Cc1cc(SC(Cc2ccc(-c3ccccc3)cc2)c2sc(-c3ccc(C(F)(F)F)cc3)nc2C)ccc1OCC(=O)O (centres unmarked) [Compound 5]	23%	35%	8.2 s	3.9 fold	3.6 fold	2.5 fold	2.4 fold	2.2 fold	2.1 fold	redder than the control group	–
ia	Cc1cc(SC(Cc2ccc(-c3ccc(F)cc3)cc2)c2sc(-c3ccc(C(F)(F)F)cc3)nc2C)ccc1OCC(=O)O (centres unmarked) [Compound 9]	18%	33%	9.7 s	3.0 fold	2.8 fold	1.9 fold	1.9 fold	1.5 fold	1.5 fold	redder than the control group	–
–	Cc1cc(SC(Cc2ccccc2)c2sc(-c3ccc(C(F)(F)F)cc3)nc2C)ccc1OCC(=O)O (centres unmarked) [CMDD1111]	–	–	–	–	–	–	–	–	–	–	Morris water maze test: average time required to find the platform ([2]; female): 6 s; Morris water maze test: average time required to find the platform ([2]; male): 9 s; running distance ([3]; female mice): 11194±261 m; running distance increase versus control ([3]; female mice): 2.1 fold; running time ([3]; female mice): 761 ± 17 min; running time increase versus control ([3]; female mice): 2.0 fold; running distance ([3]; male mice): 9927±1168 m; running distance increase versus control ([3]; male mice): 3.0 fold; running time ([3]; male mice): 677 ± 78 min; running time increase versus control ([3]; male mice): 2.9 fold
